From patent US8865641B2, “Methods of treatment of fatty liver disease by pharmacological activation of cholinergic pathways” (priority 2011, dated 2014)

Columns and labels:
Assay type in all cases: in vivo, C57BL/6J mice
[1] = system: mice with high-fat diet-induced obesity; assay: Glucose tolerance test (GTT) in high-fat diet-fed mice; settings: HFD-G as compared to HFD-S mice
Protocol: (§1) Separate groups of mice were fed and treated and body weights and food intake recorded as described above (in Experimental design). At the end of the 12 week period, mice from the three experimental groups were used in the insulin sensitivity and glucose tolerance tests. In the insulin sensitivity test, after an overnight (18 hours) fast, mice (n=10 per group) were weighed and administered i.p. with insulin (Humulin R, Lilly, 0.5 units/kg). In the glucose tolerance test, after an overnight (21 hours) fast, mice (n=10 per group) were weighed and injected i.p. with glucose (10% D glucose solution, Sigma, 1 g/kg). Glucose levels were determined at 0, 15, 30, 60, and 120 min after insulin or glucose administration in blood from the tail vein by using the Contour blood glucose meter (Bayer, Elkhart, Ind.) with Contour blood glucose test strips.

[2] = system: mice with high-fat diet-induced obesity; assay: Plasma cytokine/adipokine levels in high-fat diet-fed mice (MILLIPLEX mouse adipokine panel; adiponectin immunoassay); settings: 4 mg/kg i.p. once daily for 4 weeks
Protocol: (§2) C57BL/6J mice were initially fed a regular chow for 10 days and then switched to a high-fat diet (D12492, 60% kcal from fat, shown in FIG. 2) or its corresponding low-fat control diet (D12450B, 10% kcal from fat, shown in FIG. 1) (Research Diets, New Brunswick, N.J.) for 12 weeks. After the first 8 weeks mice on the high-fat diet were divided into 2 groups and treated with saline (i.p. once daily) or galantamine (Galanthamine Hydrobromide, EMD Biosciences, Inc., La Jolla, Calif., USA) (4 mg/kg, i.p., once daily) for the remaining 4 weeks of the study. In parallel, mice on the low-fat (control) diet were treated with saline. Body weight and food intake were determined on a weekly basis by trained personnel of the Center for Comparative Physiology at the Feinstein Institute, who were blinded to treatment groups. At the end of the experimental time period mice were euthanized and abdominal adiposity, liver weight, cytokine and adipokine levels, metabolic profile, insulin resistance, and liver histology were evaluated. In a separate experiment, groups of mice were fed and treated and body weights and food intake recorded as described above. At the end of the experimental time period mice were subjected to the insulin sensitivity test or the glucose tolerance test as described below.
(§3) After an overnight fast and following body weight and blood glucose determination mice were euthanized by CO2 asphyxiation. Heparinized blood was obtained by cardiac puncture and centrifuged within 30 min at 5,000 rpm for 10 min. Visceral adipose tissues and liver were harvested, rinsed with saline, and weighed. One piece of liver (the biggest lobe) was fixed in formalin for further H&E staining. Plasma and visceral fats (were frozen on dry ice) were transferred at −20° C. prior to further manipulations.
(§4) Plasma samples were sent to Millipore and plasma insulin, leptin, MCP-1, PAI-1, resistin, TNF and IL-6 levels were determined by using the Millipore's MILLIPLEX map mouse adipokine panel assay with the following detection sensitivity limits: leptin 16.71 pg/mL; resistin 1.79 pg/mL; IL-6 1.89 pg/mL; TNF 4.39 pg/mL; MCP-1 14.4 pg/mL; PAI-1 16.4 pg/mL, insulin 42.2 pg/mL. Plasma samples were sent to IDEXX and plasma levels of total cholesterol and ALT were determined by using IDEXX's Olympus analyzers and spectrophotometric determination. Plasma adiponectin was measured by using the mouse adiponectin/Acrp30 immunoassay (R&D Systems) according to the manufacturer's recommendations.

[3] = system: mice with high-fat diet-induced obesity; assay: Fatty liver manifestations (plasma ALT, liver weight, hepatic steatosis on H&E liver sections) in high-fat diet-fed mice; settings: 4 mg/kg i.p. once daily for 4 weeks
Protocol: (§5) Experiments with male C57BL/6J mice (5-6 month old, Jackson Lab) were performed in accordance with the NIH Guidelines under protocols approved by the IACUC Committee of the Feinstein Institute for Medical Research, North Shore-LIJ Health System, Manhasset, N.Y., USA.
as §2, with “At the end of the experimental time period mice were subjected to the insulin sensitivity test or the glucose tolerance test as described below.” left out
as §4
Formalin fixed liver tissue was imbedded in paraffin, sliced and then liver tissue sections were subjected to hematoxylin and eosin (H&E) staining and microscopic slides prepared. Hepatic steatosis was determined by microscopic evaluation of H&E stained liver sections for lipid accumulation by using Zeiss apotome and semi-quantified by applying a previously implemented grading criteria: no fat accumulation (grade 0); less than 33% fat-containing hepatocytes (grade 1); less than 66% fat-containing hepatocytes (grade 2); more than 66% fat-containing hepatocytes (grade 3).

[4] = system: mice with high-fat diet-induced obesity; assay: Insulin sensitivity test (IST) in high-fat diet-fed mice
Protocol: as §1

[5] = system: mice with high-fat diet-induced obesity; assay: Body weight, food intake and abdominal adiposity in high-fat diet-fed mice; settings: for body weight: 4 mg/kg i.p. once daily, FIG. 3A
Protocol: as §5, §2, §3

[6] = system: mice with high-fat diet-induced obesity; assay: Fasting blood glucose, plasma insulin, HOMA-IR and plasma total cholesterol in high-fat diet-fed mice; settings: 4 mg/kg i.p. once daily for 4 weeks, HFD-G vs HFD-S mice
Protocol: as §2
Blood glucose during the study was measured by nicking the tails and using the Contour blood glucose meter (Bayer, Elkhart, Ind.) with Contour blood glucose test strips according to the manufacturer's recommendations. After blood collection the cuts were compressed with sterile gauze until bleeding termination.
as §4
Insulin resistance was evaluated by using glucose and insulin level values and by applying the homeostatic model assessment-insulin resistance (HOMA-IR) formula, presented in Mlinar et al. (2007) Molecular mechanisms of insulin resistance and associated diseases. Clin Chim Acta 375:20-35, the relevant teachings of which is incorporated herein by reference. Specifically, the expression used to evaluate insulin resistance is: HOMA index=insulin (mU/L)×[glucose (mmol/L)/22.5] […]

[7] = system: mice with high-fat diet-induced obesity; assay: Separate experiment: body weight and food intake in high-fat diet-fed mice before IST and GTT; settings: 4 mg/kg i.p. once daily for 4 weeks
Protocol: as §2, with “At the end of the experimental time period mice were subjected to the insulin sensitivity test or the glucose tolerance test as described below.” left out
Separate groups of mice were fed and treated and body weights and food intake recorded as described above (in Experimental design). […]

[8] = 4 mg/kg i.p. once daily for 4 weeks, HFD-G group, Table 1 in FIG. 4

COc1ccc2c3c1O[C@H]1C[C@@H](O)C=C[C@@]31CCN(C)C2 [galantamine]
area under the curve of the GTT data ([1]; FIG. 13B): significantly lower
blood glucose levels in GTT ([1]; glucose 1 g/kg i.p. after overnight fast, FIG. 13A): suppressed blood glucose levels
plasma TNF levels ([2]; HFD-G group, no value above the assay sensitivity limit): < 4.39 pg/mL
plasma MCP-1 levels ([2]; HFD-G mice, FIG. 5C): significantly reduced
plasma IL-6 levels ([2]; HFD-G vs HFD-S mice, FIG. 5A): significantly reduced
plasma leptin levels ([2]; HFD-G vs HFD-S mice, FIG. 5B): significantly reduced
plasma resistin levels ([2]; HFD-G vs HFD-S mice, FIG. 5D): significantly lowered
plasma adiponectin levels ([2]; HFD-G vs HFD-S mice, FIG. 5F): a certain increase
plasma plasminogen activator inhibitor-1 (PAI-1) levels ([2]; HFD-S higher than LFD-S and HFD-G mice, FIG. 5E): none of these differences were statistically significant
hepatocyte fat accumulation (steatosis), microscopic observations ([3]; HFD-G mice, H&E liver sections, FIG. 9): decreased lipid accumulation
liver weight ([3]; HFD-G vs HFD-S mice, FIG. 7B): significant liver weight decrease
plasma alanine aminotransferase (ALT) levels ([3]; HFD-G vs HFD-S mice, end of 12 week study, FIG. 7A): significantly decreased
lipid accumulation in livers, semi-quantitative analysis ([3]; HFD-G vs HFD-S mice, steatosis grade 0-3, FIG. 10): significantly reduced
blood glucose levels in IST at 15 min and 30 min ([4]; HFD-G as compared to HFD-S mice, insulin 0.5 units/kg i.p. after overnight fast): significantly lower
blood glucose levels in IST at 120 min ([4]; HFD-G as compared to LFD-S mice, insulin 0.5 units/kg i.p. after overnight fast): significantly lower
time of lowest blood glucose levels in IST ([4]; HFD-G mice after insulin 0.5 units/kg i.p., unchanged at 60 min, increased at 120 min, FIG. 12): 30 min
mesenteric adipose tissue weight [5, 8]: significantly reduced
retroperitoneal/perirenal adipose tissue weight [5, 8]: significantly reduced
food intake ([5]; 4 mg/kg i.p. once daily for 4 weeks, HFD-G vs HFD-S group during treatment, FIG. 3B): additional suppression of food intake
body weight ([5]; HFD-G mice at week 9 as compared to week 8, then sustained): lower after the first week of treatment
body weight ([5]; HFD-G vs HFD-S mice at weeks 11 and 12): lower than the weight of HFD-S mice
fasting blood glucose levels ([6]; FIG. 6A): significantly reduced
plasma insulin levels ([6]; FIG. 6B): significantly reduced
plasma total cholesterol levels ([6]; FIG. 6D): significantly decreased
insulin resistance (HOMA-IR) ([6]; calculated from glucose and insulin, FIG. 6C): reversed this insulin resistance
body weight ([7]; HFD-G mice, while HFD-S continued to increase, FIG. 11A): decreased
food intake ([7]; HFD-G vs HFD-S group, FIG. 11B): significantly lower
